Patent US4117164A, “Aminomethyl-benzocycloheptenes and method of use” (Roussel Uclaf, priority 1976, dated 1978)
Where a name gives a salt, the structure may show the parent alone.

Columns and labels:
[1] = tested on: effects of monoamine oxidase inhibitor (nialamide); assay: Potentiation of effects of monoamine oxidase inhibitor (nialamide) in mice, actimetric measurements; format: in vivo; parameters: key: Potentiation of the effects of nial amide for the tested product was expressed in increasing number of + sign for a determined dose in mg/kg; settings: nialamide 100 mg/kg i.p. 30 minutes before, actimetric values every 30 minutes for 6 hours
Excerpt: The administration of a monoamine oxidase inhibitor to mice induces a hyperactive movement of the animals which is able to be potentiated by an antidepressant. […] Potentiation of the effects of nial amide for the tested product was expressed in increasing number of + sign for a determined dose in mg/kg.

serotonine (5HT) uptake = assay: Inhibition of serotonine (5HT) uptake in vitro in impure brain synaptosomes; format: biochemical; settings: synaptosomes from entire brain of female rat 19 to 21 days old, 14C-5HT 10^-7 M, 37° C., 5 minutes; read-out: I.C. 50, 50% inhibiting concentration of 14C-5HT uptake
Protocol: The inhibition of serotonine (5HT) uptake was measured in impure synaptosomes prepared from the entire brain of a female rat 19 to 21 days old using the technique of Kannengiesser et al [Biochemical Pharmacology, Vol. 22, (1973) p. 73].

[2] = Acute toxicity, intraperitoneal; settings: mouse, in vivo, ip; mice, i.p., determined 48 hours later; read-out: DL50 dose which kills 50% of mice
Protocol: The DL50 dose which kills 50% of mice after intraperitoneal administration of the tested compound was determined 48 hours later and the DL50 for the compounds is reported in Table III.

effects of L-dopa = assay: Potentiation of effects of L-dopa in mice pretreated with iproniazide; format: in vivo; settings: Mus musculus, ip, one hour before L-dopa 100 mg/kg i.p.; male mice, iproniazide 75 mg/kg i.p. 18 hours before; read-out: ED50 dose which potentiates by 50% the L-dopa effects
Protocol: The administration of L-dopa to mice pretreated 18 hours previously with iproniazide produced certain number of symptoms; muscular hypertonicity, hyperactivity, agitation crying, aggressiveness, salivation and exophthalmy. The intensity of these effects is potentiated by administration of an antidepressant one hour before the administration of L-dopa. Male mice received intraperitoneally 75 mg/kg of iproniazide 18 hours before the start of the test and the tested product was intraperitoneally administered in aqueous solution in increasing doses. One hour later, L-dopa was intraperitoneally administered at a dose of 100 mg/kg and the different symptoms were observed 15 and 30 minutes later. They were evaluated on a scale of 0 to 3 for each animal and the totals for each dose were determined.

Row | SMILES | Potentiation of Nialamide ([1]; 5 mg/kg i.p.) | Potentiation of Nialamide ([1]; 20 mg/kg i.p.) | IC50 (serotonine (5HT) uptake) [nM] | LD50 at 48 h [2] [mg/kg] | ED50 (effects of L-dopa) [mg/kg]
1 | CN(C)CC1C=Cc2cc([N+](=O)[O-])ccc2CC1 (stereo not drawn) [1 - 2] | + | + | 630 | 150 | –
2 | CNCC1C=Cc2cc([N+](=O)[O-])ccc2CC1 (stereo not drawn) [Example 3, N-methyl-2-nitro-6,7-dihydro [5H] benzocycloheptene-7-methanamine hydrochloride] | – | + | 590 | 100 | 20
3 | CNCC1C=Cc2cc(N)ccc2CC1 (stereo not drawn) [Example 4, di-(N-methyl-2-amino-6,7-dihydro [5H]benzocycloheptene-7-methanamine) fumarate] | – | – | 6800 | 100 | –
4 | CNCC1C=Cc2cc(OC)ccc2CC1.Cl (stereo not drawn) [Example 5, N-methyl-2-methoxy-6,7-dihydro [5H] benzocycloheptene-7-methanamine hydrochloride] | – | – | 1400 | 100 | 50
5 | CNCC1C=Cc2cc(O)ccc2CC1.Cl (stereo not drawn) [Example 6, 7-methylaminomethyl-6,7-dihydro [5H] benzocycloheptene-2-ol-hydrochloride] | + | + | 980 | 75 | 20
